Patent US10294202B2, “Pyrrolidinones as herbicides” (FMC Corporation, priority 2013, dated 2019)

What was measured:
[1] = test system: corn; assay: Test A pre-/postemergence herbicide test; type: in vivo, Zea mays
How it was run: (§1)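 Seeds sown in loam soil/sand blend received a preemergence directed soil spray of test chemical in non-phytotoxic solvent with surfactant; postemergence plants (2–10 cm, one- to two-leaf stage) were sprayed with the same formulation. After about 10 days in greenhouse, injury was rated visually versus untreated controls, 0 (no effect) to 100 (complete control).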

[2] = test system: blackgrass; assay: Test C pre-/postemergence herbicide test; type: in vivo, Alopecurus myosuroides
How it was run: (§2)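 Visual rating, 0 (no effect) to 100 (complete control), versus untreated controls after 13 to 15 days in the greenhouse. Pre: seeds in loam/sand, sprayed at planting. Post: 1- to 4-leaf plants (2 to 18 cm) in peat-based mix. Compounds in non-phytotoxic solvent plus surfactant.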

[3] = test system: wheat (winter wheat); assay: Test C pre-/postemergence herbicide test; type: in vivo, Triticum aestivum
How it was run: as §2

[4] = test system: chickweed; assay: Test C postemergence herbicide test; type: in vivo, Stellaria media
How it was run: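 Response is scored visually on a 0–100 scale (100 = complete control) relative to untreated controls, 13 to 15 days after treatment. Plants were sprayed postemergence at the 1- to 4-leaf stage (2 to 18 cm tall) and kept in a greenhouse.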

[5] = test system: ducksalad; assay: Test C flooded paddy test; type: in vivo, Heteranthera limosa; settings: Flood
How it was run: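 Visual injury scored against controls after 13 to 15 days in the greenhouse, using 0 (no effect) to 100 (complete control). Test compounds went straight into paddy water held 3 cm above the soil surface on 2-leaf-stage plants, with that flood depth maintained for the whole test.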

[6] = test system: crabgrass, large; assay: Test A pre-/postemergence herbicide test; type: in vivo, Digitaria sanguinalis
How it was run: as §1

[7] = test system: morningglory; assay: Test A pre-/postemergence herbicide test; type: in vivo, Ipomoea spp.
How it was run: as §1

[8] = test system: velvetleaf; assay: Test A pre-/postemergence herbicide test; type: in vivo, Abutilon theophrasti
How it was run: as §1

[9] = Postemergence, 125 g ai/ha, 0 to 100 scale, 0 is no effect, 100 is complete control
[10] = Postemergence, 500 g ai/ha, 0 to 100 scale (0 no effect, 100 complete control)
[11] = Postemergence, 8 g ai/ha, scale 0 to 100 (0 no effect, 100 complete control)
[12] = Postemergence, 16 g ai/ha, scale 0 to 100 (0 no effect, 100 complete control)
[13] = Postemergence, 31 g ai/ha, scale 0 to 100 (0 no effect, 100 complete control)
[14] = Postemergence, 62 g ai/ha, scale 0 (no effect) to 100 (complete control)
[15] = Preemergence, 31 g ai/ha, scale 0 to 100, 0 is no effect and 100 is complete control
[16] = Preemergence, 62 g ai/ha, scale 0 to 100 (0 no effect, 100 complete control)
[17] = Preemergence, 8 g ai/ha, scale 0 to 100
[18] = Preemergence, 16 g ai/ha, scale 0 to 100
[19] = 16 g ai/ha, scale 0 to 100 (0 no effect, 100 complete control)
[20] = 31 g ai/ha, scale 0 to 100 (0 no effect, 100 complete control)
[21] = 62 g ai/ha, scale 0 (no effect) to 100 (complete control)
[22] = 125 g ai/ha, scale of 0 to 100 where 0 is no effect and 100 is complete control, 13 to 15 days
[23] = 250 g ai/ha, scale of 0 to 100 where 0 is no effect and 100 is complete control, 13 to 15 days
[24] = Postemergence, 125 g ai/ha, scale 0 to 100 (0 no effect, 100 complete control)
[25] = Preemergence, 125 g ai/ha, scale 0 to 100 (0 no effect, 100 complete control)
[26] = 125 g ai/ha, scale 0 to 100 (0 no effect, 100 complete control)
[27] = Postemergence, 1000 g ai/ha, 0 to 100 scale (0 no effect, 100 complete control)
[28] = Preemergence, 1000 g ai/ha, visual rating on 0 to 100 scale (0 no effect, 100 complete control), approx. 10 days
[29] = Postemergence, 31 g ai/ha, scale 0 (no effect) to 100 (complete control)
[30] = Postemergence, 62 g ai/ha, scale 0 to 100 (0 no effect, 100 complete control)
[31] = Postemergence, 250 g ai/ha, scale 0 to 100 (0 no effect, 100 complete control)
[32] = Preemergence, 62 g ai/ha, scale 0 to 100
[33] = 31 g ai/ha, scale 0 (no effect) to 100 (complete control)
[34] = 62 g ai/ha, scale 0 to 100 (0 no effect, 100 complete control)
[35] = 250 g ai/ha, scale 0 to 100 (0 no effect, 100 complete control)
[36] = Postemergence, 125 g ai/ha, 0 to 100 scale, 0 no effect, 100 complete control
[37] = Preemergence, 125 g ai/ha, visual rating on 0 to 100 scale (0 no effect, 100 complete control)
[38] = preemergence, 500 g ai/ha, 0 to 100 scale

`CN1CC(c2ccc(F)cc2)C(C(=O)Nc2cccc(F)c2F)C1=O` (stereo not drawn) [Compound 271] was tested, and the “Plant response rating, Corn” value [1, 9] was 20, the “Plant response rating, Corn” value [1, 10] was 60 and the “Plant response rating, Blackgrass” value [2, 11] was 0. For the same compound, the “Plant response rating, Blackgrass” value [2, 12] was 0, the “Plant response rating, Blackgrass” value [2, 13] was 0 and the “Plant response rating, Blackgrass” value [2, 14] was 0. For the same compound, the “Blackgrass plant response rating” value [2, 15] was 0, the “Blackgrass plant response rating” value [2, 16] was 50 and the “Plant response rating, Blackgrass” value [2, 17] was 0. For the same compound, the “Plant response rating, Wheat” value [3, 11] was 0, the “Plant response rating, Wheat” value [3, 12] was 0 and the “Plant response rating, Wheat” value [3, 13] was 0. For the same compound, the “Plant response rating, Wheat” value [3, 14] was 0, the “Wheat plant response rating” value [3, 15] was 0 and the “Wheat plant response rating” value [3, 16] was 0. For the same compound, the “Plant response rating, Wheat” value [3, 17] was 0, the “Plant response rating, Wheat” value [3, 18] was 0 and the “Plant response rating, Chickweed” value ([4]; 8 g ai/ha, scale 0 to 100 (0 no effect, 100 complete control)) was 0. For the same compound, the “Plant response rating, Chickweed” value [4, 19] was 5, the “Plant response rating, Chickweed” value [4, 20] was 5 and the “Plant response rating, Chickweed” value [4, 21] was 50. The “Plant response rating, Ducksalad” value [5, 22] was 70, the “Plant response rating, Ducksalad” value [5, 23] was 100 and the “Plant response rating, Ducksalad” value ([5]; 500 g ai/ha, scale 0 to 100) was 100. The “Plant response rating, Ducksalad” value ([5]; 1000 g ai/ha, scale 0 to 100) was 100.
In the case of `CN1CC(c2cccc(C(F)(F)F)c2)C(C(=O)Nc2ccccc2F)C1=O` (stereo not drawn) [Compound 277], the “Plant response rating, Corn” value [1, 9] is reported as 90, the “Plant response rating, Corn” value [1, 10] is reported as 90 and the “Plant response rating, Blackgrass” value [2, 12] is reported as 0. For the same compound, the “Plant response rating, Blackgrass” value [2, 13] was 0, the “Plant response rating, Blackgrass” value [2, 14] was 0 and the “Plant response rating, Blackgrass” value [2, 24] was 0. For the same compound, the “Blackgrass plant response rating” value [2, 15] was 70, the “Blackgrass plant response rating” value [2, 16] was 70 and the “Plant response rating, Blackgrass” value [2, 25] was 90. The “Plant response rating, Blackgrass” value [2, 18] was 40, the “Plant response rating, Wheat” value [3, 12] was 0 and the “Plant response rating, Wheat” value [3, 13] was 0. The “Plant response rating, Wheat” value [3, 14] was 0, the “Plant response rating, Wheat” value [3, 24] was 0 and the “Wheat plant response rating” value [3, 15] was 60. For the same compound, the “Wheat plant response rating” value [3, 16] was 70, the “Plant response rating, Wheat” value [3, 18] was 40 and the “Plant response rating, Chickweed” value [4, 19] was 0. For the same compound, the “Plant response rating, Chickweed” value [4, 20] was 40, the “Plant response rating, Chickweed” value [4, 21] was 0 and the “Plant response rating, Chickweed” value [4, 26] was 40. For the same compound, the “Plant response rating, Ducksalad” value ([5]; 62 g ai/ha, scale of 0 to 100 where 0 is no effect and 100 is complete control, 13 to 15 days) was 65, the “Plant response rating, Ducksalad” value [5, 22] was 80 and the “Plant response rating, Ducksalad” value [5, 23] was 85. For the same compound, the “Plant response rating, Ducksalad” value ([5]; 500 g ai/ha, scale 0 to 100) was 95.
In the case of `O=C1NCC(c2cc(F)c(F)c(F)c2)C1C(=O)Nc1ccccc1F` (racemic) [Compound 34], the “Plant response rating, Crabgrass, Large” value [6, 27] is reported as 90, the “Plant response rating, Crabgrass, Large” value [6, 28] is reported as 90 and the “Plant response rating, Morningglory” value [7, 27] is reported as 20. The “Plant response rating, Velvetleaf” value [8, 27] was 20, the “Plant response rating, Velvetleaf” value [8, 28] was 0 and the “Plant response rating, Corn” value [1, 27] was 50. The “Plant response rating, Corn” value [1, 28] was 30, the “Plant response rating, Blackgrass” value [2, 29] was 0 and the “Plant response rating, Blackgrass” value [2, 30] was 0. The “Plant response rating, Blackgrass” value [2, 24] was 0, the “Plant response rating, Blackgrass” value [2, 31] was 0 and the “Blackgrass plant response rating” value ([2]; Preemergence, 31 g ai/ha, scale 0 to 100 (0 no effect, 100 complete control)) was 0. For the same compound, the “Plant response rating, Blackgrass” value [2, 32] was 0, the “Plant response rating, Blackgrass” value [2, 25] was 10 and the “Plant response rating, Blackgrass” value ([2]; Preemergence, 250 g ai/ha, scale 0 to 100 (0 no effect, 100 complete control)) was 45. The “Plant response rating, Wheat” value [3, 29] was 0, the “Plant response rating, Wheat” value [3, 30] was 0 and the “Plant response rating, Wheat” value [3, 24] was 0. The “Plant response rating, Wheat” value [3, 31] was 0, the “Plant response rating, Wheat” value [3, 32] was 0 and the “Plant response rating, Wheat” value [3, 25] was 35. The “Plant response rating, Chickweed” value [4, 33] was 0, the “Plant response rating, Chickweed” value [4, 34] was 0 and the “Plant response rating, Chickweed” value [4, 26] was 5. The “Plant response rating, Chickweed” value [4, 35] was 5.
In the case of `O=C1NCC(c2ccc(F)c(C(F)(F)F)c2)C1C(=O)Nc1ccccc1F` (racemic) [Compound 76], the “Plant response rating, Crabgrass, Large” value [6, 36] is reported as 90, the “Plant response rating, Crabgrass, Large” value [6, 10] is reported as 90 and the “Crabgrass, Large plant response rating” value [6, 37] is reported as 90. The “Plant response rating, Crabgrass, Large” value [6, 38] was 90, the “Plant response rating, Morningglory” value [7, 36] was 20 and the “Plant response rating, Morningglory” value [7, 10] was 40. For the same compound, the “Morningglory plant response rating” value [7, 37] was 0, the “Plant response rating, Morningglory” value [7, 38] was 50 and the “Plant response rating, Velvetleaf” value [8, 36] was 20. For the same compound, the “Plant response rating, Velvetleaf” value [8, 10] was 60, the “Velvetleaf plant response rating” value [8, 37] was 0 and the “Plant response rating, Velvetleaf” value [8, 38] was 0. For the same compound, the “Plant response rating, Corn” value [1, 36] was 40, the “Plant response rating, Corn” value [1, 10] was 70 and the “Corn plant response rating” value [1, 37] was 0. For the same compound, the “Plant response rating, Corn” value [1, 38] was 40, the “Plant response rating, Blackgrass” value [2, 29] was 0 and the “Plant response rating, Blackgrass” value [2, 30] was 0. For the same compound, the “Plant response rating, Blackgrass” value [2, 24] was 0, the “Plant response rating, Blackgrass” value [2, 31] was 10 and the “Blackgrass plant response rating” value [2, 15] was 50. The “Plant response rating, Blackgrass” value [2, 32] was 50, the “Plant response rating, Blackgrass” value [2, 25] was 80 and the “Plant response rating (scale of 0 to 100), Blackgrass” value ([2]; Preemergence, 250 g ai/ha) was 80. The “Plant response rating, Wheat” value [3, 29] was 0, the “Plant response rating, Wheat” value [3, 30] was 0 and the “Plant response rating, Wheat” value [3, 24] was 0. The “Plant response rating, Wheat” value [3, 31] was 5, the “Wheat plant response rating” value [3, 15] was 35 and the “Plant response rating, Wheat” value [3, 32] was 45. The “Plant response rating, Wheat” value [3, 25] was 70, the “Plant response rating (scale of 0 to 100), Wheat” value ([3]; Preemergence, 250 g ai/ha) was 80 and the “Plant response rating, Chickweed” value [4, 33] was 40. For the same compound, the “Plant response rating, Chickweed” value [4, 34] was 40, the “Plant response rating, Chickweed” value [4, 26] was 65 and the “Plant response rating, Chickweed” value [4, 35] was 80.
